This passage reports relative viability results from the supplement of paper PMC10307832.

Common to all, as to assay: relative viability (nuclei count vs DMSO), 5 days (fraction); higher = more cells survive
Compound in test [1]: COc1cc2/c(=N/c3ccc(Br)cc3F)nc[nH]c2cc1OCC1CCN(C)CC1 [Vandetanib] + Nc1nc2[nH]cc(CCc3ccc(C(=O)N[C@@H](CCC(=O)O)C(=O)O)cc3)c2c(=O)[nH]1 [Pemetrexed] (partner 0.2 µM)
The gist of the method: (§1)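 Relative viability was taken as the ratio of nuclei in treated wells to nuclei in vehicle wells. Lung cancer cell lines in 1536-well plates received compounds by pin tool one day after seeding, either one drug alone or a fixed anchor-drug dose plus five library-drug doses (not always all listed) in √10 steps. Nuclei were counted on 4× images after 5 days of treatment, and values are medians of duplicate plates.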

Compound in test [2]: C#Cc1cccc(Nc2ncnc3cc(OC)c(OCCCCCCC(=O)NO)cc23)c1 [CUDC-101] + CS(=O)(=O)N1CCN(Cc2cc3nc(-c4cccc5[nH]ncc45)nc(N4CCOCC4)c3s2)CC1 [Pictilisib] (partner 1 µM)
A digest of the protocol: as §1

Compound in test [3]: C#Cc1cccc(Nc2ncnc3cc(OC)c(OCCCCCCC(=O)NO)cc23)c1 [CUDC-101] + O=C(CCCCCCC(=O)Nc1ccccc1)NO [Vorinostat] (partner 1 µM)
A digest of the protocol: as §1

Compound in test [4]: COc1cc2/c(=N/c3ccc(Br)cc3F)nc[nH]c2cc1OCC1CCN(C)CC1 [Vandetanib] + O=C(CCCCCCC(=O)Nc1ccccc1)NO [Vorinostat] (partner 1 µM)
A digest of the protocol: as §1

Regarding UMC-11, the relative viability in test [1] (first compound 0.02 µM) was 0.764; in test [1] (first compound 0.06325 µM) it was 0.799; in test [1] (first compound 0.2 µM), 0.801; in test [1] (first compound 0.6325 µM) it was 0.721; in test [1] (first compound 2 µM), 0.667; in test [2] (first compound 0.01 µM), 0.857. Moreover, the relative viability in test [2] (first compound 0.03162 µM) is 0.775; in test [2] (first compound 0.1 µM), 0.679; in test [2] (first compound 0.3162 µM) it was 0.575; in test [2] (first compound 1 µM), 0.108; in test [3] (first compound 0.01 µM) it was 0.359; in test [3] (first compound 0.03162 µM), 0.317. Further, the relative viability in test [3] (first compound 0.1 µM) is 0.32; in test [3] (first compound 0.3162 µM), 0.129; in test [3] (first compound 1 µM), 0.0877; in test [4] (first compound 0.02 µM), 0.43; in test [4] (first compound 0.06325 µM), 0.373; in test [4] (first compound 0.2 µM), 0.399. The values for the relative viability in test [4] (first compound 0.6325 µM) and in test [4] (first compound 2 µM) were 0.342 and 0.364, respectively.
